The test system of this test is vine weevil. Description: Drench treatments of potted Fuchsia triphylla hybrid cv. Koralle infested with vine weevil eggs (curative). It is filed as in vivo. The settings on record: curative drench treatment; after 6 months. As for the experimental part:
In 20-replicate tests, Fuchsia triphylla hybrid cv. Koralle was infested with 15 eggs per pot of vine weevil. Compound A in the form of an 80% water dispersible granule (Regent 800 WG) was suspended in water and added to each pot at the indicated rate per surface area of the pot at various dilutions. After 6 months, the trials were assessed.

On to `N#Cc1nn(-c2c(Cl)cc(C(F)(F)F)cc2Cl)c(N)c1[S+]([O-])C(F)(F)F` (stereo not shown) [Compound A, 5-amino-1-(2,6-dichloro 4-trifluoromethylphenyl) 4-trifluoromethylsulfinyl-3-cyanopyrazole], for which the “protection of the plants compared with fonofos” value is recorded as “protected the plants substantially better than the commercial standard fonofos”.

The values above are taken from patent EP0968651A1, “Pesticidal method and composition” (RHONE-POULENC A[…]., priority 1998, dated 2000).
